Laboratory results reported in article PMC4158172 (European Journal of Clinical Pharmacology, 2014).
Like-named read-outs stand apart in the source and are kept apart here.

Experiments:
[1] = Safety evaluations, interaction study with EFV; format: in vivo, human; conditions: healthy subjects n=12
Protocol: (§1) In both studies, safety evaluations [adverse event (AE) reporting, clinical chemistry laboratory tests, urinalysis, vital signs and electrocardiogram] were performed throughout the study. Given the known hepatotoxicity profile of TPV/r, more frequent monitoring of liver chemistries was performed in the TPV/r study, and conservative stopping criteria were employed such that any subject reaching a grade 2 increase in alanine aminotransferase (ALT) or aspartate aminotransferase (AST) was discontinued from the trial. Both trials were conducted as inpatient studies with subjects housed in the unit for the duration of the study. The studies were conducted in accordance with the principles of the Declaration of Helsinki. A written informed consent was obtained from all subjects, and both protocols were approved by the institutional review board of the study sites.

[2] = test system: HIV; design: method as in earlier work; conditions: SAILING, cited from earlier work
[3] = Urinary metabolic profile of DTG (pooled urine); format: in vivo, human; conditions: pooled urine 0-24 h, n=12, mean (standard deviation)
Protocol: (§2) There was no washout between treatment periods. All doses were administered in the fasting state.
(§3) Urine samples were collected at intervals of 0 to 12 hours and 12 to 24 hours after each treatment period. Individual urine pools were produced for each subject in a given treatment group by combining proportional volumes (% of total volume) from the 0- to 12-hours and 12- to 24-hours collections. Individual pooled human plasma samples were prepared for each subject and treatment group.
(§4) Each pooled plasma sample was mixed with aqueous EDTA disodium salt solution (10 mg/mL) and subsequently extracted 3 times with methanol and acetonitrile. Pooled urine samples were lyophilised and the residue was reconstituted in water:methanol (90:10 v/v). Drug-related components in plasma extracts and urine samples were separated on a 100 × 4.6 mm 3.5-micron Symmetry C18 column (Waters Associates) at 40°C by a step-gradient elution method with a mobile phase composition of water:acetonitrile containing 0.1% ammonium acetate starting at 95:5 (v/v) and ending at 5:95 (v/v) over 50 minutes. The eluate was analysed by multistage mass spectrometry (MSn) using an LTQ Orbitrap™ Hybrid Mass Spectrometer with Xcalibur 2.07 software (Thermo Fisher Scientific, Bremen, Germany). Data-dependent scanning using an accurate mass list, consisting of all previously characterised metabolites, was used in addition to analysis of pre-dose samples to aid in the distinction of drug-related material from endogenous components.

[4] = test system: P-glycoprotein (P-gp); design: method as in PMID 23132334; conditions: in vitro; cited from earlier work
[5] = test system: UGT1A1; design: method as in PMID 23132334; conditions: in vitro; cited from earlier work
[6] = Plasma metabolic profile of DTG (pooled plasma); format: in vivo, human; conditions: individual 24-h proportionally pooled plasma, DTG alone and DTG + EFV
Protocol: as §2, §3
as §4, with “Data-dependent scanning using an accurate mass list, consisting of all previously characterised metabolites, was used in addition to analysis of pre-dose samples to aid in the distinction of drug-related material from endogenous components.” left out

[7] = Safety evaluations, interaction study with TPV/r; format: in vivo, human; conditions: healthy subjects n=18
Protocol: as §1

C[C@@H]1CCO[C@H]2Cn3cc(C(=O)NCc4ccc(F)cc4F)c(=O)c(O)c3C(=O)N12 [DTG, Dolutegravir]
subjects reporting at least one AE [1]: 17%
tolerability ([1]; repeat doses): generally well tolerated
week 48 Snapshot response rate ([2]; DTG 50 mg once daily with EFV- or TPV/r-containing background regimens, n=16): 56.3%
week 48 Snapshot response rate ([2]; subjects not on these inducers or inhibitors (atazanavir and atazanavir/ritonavir)): 74.4%
% DTG ([3]; DTG 50 mg + EFV q24h): 100%
% Total drug-related response ([3]; DTG 50 mg + EFV q24h): 6.2 (5.0) %
% DTG ([3]; DTG 50 mg q24h): 100%
% Total drug-related response ([3]; DTG 50 mg q24h): 6.4 (1.8) %
direct inhibition of P-gp [4]: minimal or no direct inhibition
direct inhibition of UGT1A1 [5]: minimal or no direct inhibition
share of drug-related material in plasma [6]: > 97%
subjects reporting headache [7]: 11%
